This passage reports IC50 results from patent US20090239841A1, “Diaryl Ureas as CB1 Antagonists” (priority 2004, published 2009).

The target in the assay is T1, hCB1 (Homo sapiens, UniProt P21554).
T1 construct: made in house; host or cells: Sf9 insect cells (baculovirus), P2 membranes
As to the kind of experiment: Agonist-induced GTP binding (GTPγ35S) assay at CB1, Example 8. The conditions noted are these: read-out: IC50. The class given is biochemical. Put shortly: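 Membranes from Sf9 cells co-expressing hCB1 and heterotrimeric G-protein (10 μg protein) in Tris pH 7.4 buffer with 5 μM GDP. Test compounds (10^−10–10^−5 M) competed against 1 nM CP55,940 with […] GTPγ35S, 60 min at room temperature. Filter-bound radioactivity by scintillation, expressed as percent above basal.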

[1] abbreviates: IC50 at CB1, determined as described in Example 8.
[2] abbreviates: Table II, IC50 at CB1, GTP binding with 1 nM CP55,940.
Where [3] appears, read: Table I, IC50 at CB1, GTP binding with 1 nM CP55,940.

Read-outs that look alike come from different tables or passages of the source. A value given as a limit tells only on which side of the number the result lay.

T1 sequence (P21554 whole entry): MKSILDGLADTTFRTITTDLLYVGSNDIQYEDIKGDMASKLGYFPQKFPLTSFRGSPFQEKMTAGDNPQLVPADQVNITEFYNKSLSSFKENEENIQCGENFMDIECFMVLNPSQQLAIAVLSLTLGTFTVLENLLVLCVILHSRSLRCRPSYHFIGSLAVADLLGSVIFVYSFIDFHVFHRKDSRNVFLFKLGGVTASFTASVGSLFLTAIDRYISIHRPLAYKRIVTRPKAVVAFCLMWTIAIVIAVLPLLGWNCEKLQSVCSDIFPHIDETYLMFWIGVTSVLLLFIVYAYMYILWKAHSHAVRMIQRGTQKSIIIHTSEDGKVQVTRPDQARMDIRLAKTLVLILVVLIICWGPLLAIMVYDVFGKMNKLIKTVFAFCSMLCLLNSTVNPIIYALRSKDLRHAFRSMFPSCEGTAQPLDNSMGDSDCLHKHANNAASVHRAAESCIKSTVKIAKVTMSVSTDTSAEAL

A word on the IC50: it is the concentration needed to halve the response being measured. For the molecule `CCC(=O)c1ccc(NC(=O)Nc2cccc(C(=O)OC)c2)cc1` [Compound 720, methyl 3-({[(4-propionylphenyl)amino]carbonyl}amino)benzoate], the IC50 under setting [1] was under 2000 nM.

Take `CCc1ccc(NC(=O)Nc2cccc(C)c2)cc1` [Compound 289, N-(4-ethylphenyl)-N′-(3-methylphenyl)urea]: the IC50 under setting [1] is under 2000 nM.

Turning to `CCOc1cccc(NC(=O)Nc2ccc(C)cc2)c1` [Compound 202, N-(3-ethoxyphenyl)-N′-(4-methylphenyl)urea], the IC50 under setting [2] is under 2000 nM.

Turning to `CCc1ccc(NC(=O)Nc2ccc(F)c(C)c2)cc1` [Compound 440, 1-(4-ethylphenyl)-3-(4-fluoro-3-methylphenyl)urea], the IC50 under setting [1] is under 2000 nM.

Consider `CCOC(=O)c1ccc(NC(=O)Nc2ccc(C)c(F)c2)cc1` [Compound 737, ethyl 4-({[(3-fluoro-4-methylphenyl)amino]carbonyl}amino)benzoate], for which the IC50 under setting [1] is under 2000 nM.

As for `O=C(Nc1ccc(OC(F)F)cc1)Nc1cccnc1Cl` [Compound 149, N-(2-chloropyridin-3-yl)-N′-[4-(difluoromethoxy)phenyl]urea], the IC50 under setting [2] was under 2000 nM.

Consider `CCCc1ccc(NC(=O)Nc2cccc(F)c2)cc1` [Compound 327, 1-(3-fluorophenyl)-3-(4-propylphenyl)urea], for which the half-maximal inhibitory concentration (IC50) under setting [1] is under 2000 nM.

For the molecule `CCOc1ccc(NC(=O)Nc2cccc(F)c2)cc1` [Compound 205, N-(4-ethoxyphenyl)-N′-(3-fluorophenyl)urea], the IC50 under setting [2] is under 2000 nM.

`Cc1cccc(NC(=O)Nc2ccc(N3CCOCC3)c(Cl)c2)c1` [Compound 162, N-(3-chloro-4-morpholin-4-ylphenyl)-N′-(3-methylphenyl)urea]: the IC50 under setting [2] was under 2000 nM.

`N#CCc1ccc(NC(=O)Nc2ccc(F)cc2)cc1` [Compound 462, 1-[4-(cyanomethyl)phenyl]-3-(4-fluorophenyl)urea]: the IC50 under setting [1] was under 2000 nM.

Regarding `CCOC(=O)c1cccc(NC(=O)Nc2ccc(C(=O)CC)cc2)c1` [Compound 721, ethyl 3-({[(4-propionylphenyl)amino]carbonyl}amino)benzoate], the IC50 under setting [1] was under 2000 nM.

In the case of `COc1ccc(NC(=O)Nc2ccc3c(c2)CCC3)cc1` [Compound 620, 1-(2,3-dihydro-1H-inden-5-yl)-3-(4-methoxyphenyl)urea], under setting [1], the IC50 is under 2000 nM.

For the molecule `CCCOc1ccc(NC(=O)Nc2cccc(C(=O)OCC)c2)cc1` [Compound 671, ethyl 3-({[(4-propoxyphenyl)amino]carbonyl}amino)benzoate], the IC50 under setting [1] is under 2000 nM.

As for `Cc1ccc(NC(=O)Nc2cccc(OC(C)C)c2)cc1` [Compound 38, N-(3-isopropoxyphenyl)-N′-(4-methylphenyl)urea], the IC50 under setting [3] was under 2000 nM.

Take `COCc1ccc(NC(=O)Nc2cc(F)cc(F)c2)cc1` [Compound 705, 1-(3,5-difluorophenyl)-3-[4-(methoxymethyl)phenyl]urea]: under setting [1], the IC50 is under 2000 nM.

As to `CCOc1cccc(NC(=O)Nc2cccc(F)c2)c1` [Compound 355, 1-(3-ethoxyphenyl)-3-(3-fluorophenyl)urea], the IC50 under setting [1] is under 2000 nM.

As for `Cc1ccc(NC(=O)Nc2ccc(C(C)C)cc2)cc1F` [Compound 626, 1-(3-fluoro-4-methylphenyl)-3-(4-isopropylphenyl)urea], under setting [1], the IC50 is under 2000 nM.

For the molecule `COc1cccc(NC(=O)Nc2ccc(C)c(Cl)c2)c1` [Compound 621, 1-(3-chloro-4-methylphenyl)-3-(3-methoxyphenyl)urea], the IC50 under setting [1] is under 2000 nM.

For the molecule `Cc1ccc(NC(=O)Nc2ccc(-n3cnc(Cl)c3Cl)cc2)cc1` [Compound 166, N-[4-(4,5-dichloro-1H-imidazol-1-yl)phenyl]-N′-(4-methylphenyl)urea], the IC50 under setting [2] was under 2000 nM.

Take `CCc1ccc(NC(=O)Nc2ccc(C)c(C)c2)cc1` [Compound 436, 1-(3,4-dimethylphenyl)-3-(4-ethylphenyl)urea]: the IC50 under setting [1] was under 2000 nM.

Consider `O=C(Nc1ccc(OC(F)F)cc1)Nc1cccc(-c2cnc3ccccc3c2)c1` [Compound 69, N-[4-(difluoromethoxy)phenyl]-N′-(3-quinolin-3-ylphenyl)urea], for which the IC50 under setting [2] was under 2000 nM.

Regarding `O=C(Nc1ccc(F)cc1)Nc1cccc(OC(F)F)c1` [Compound 220, N-[3-(difluoromethoxy)phenyl]-N′-(4-fluorophenyl)urea], the IC50 under setting [2] is under 2000 nM.

For the molecule `CCCOc1ccc(NC(=O)Nc2ccc(F)c(F)c2)cc1` [Compound 686, 1-(3,4-difluorophenyl)-3-(4-propoxyphenyl)urea], the IC50 under setting [1] was under 2000 nM.

As to `CCCOc1ccc(NC(=O)Nc2ccc(CC)cc2)cc1` [Compound 24, N-(4-ethylphenyl)-N′-(4-propoxyphenyl)urea], under setting [3], the IC50 is under 2000 nM.

On to `O=C(Nc1cccc(OC(F)F)c1)Nc1ccc(N2CCOCC2)c(Cl)c1` [Compound 143, N-(3-chloro-4-morpholin-4-ylphenyl)-N′-[3-(difluoromethoxy)phenyl]urea], for which the IC50 under setting [2] is under 2000 nM.

As for `CC(C)OC(=O)c1ccc(NC(=O)Nc2cccc(F)c2)cc1` [Compound 479, isopropyl 4-({[(3-fluorophenyl)amino]carbonyl}amino)benzoate], the IC50 under setting [1] was under 2000 nM.

In the case of `COc1ccc(NC(=O)Nc2ccc(C)c(Cl)c2)cc1` [Compound 622, 1-(3-chloro-4-methylphenyl)-3-(4-methoxyphenyl)urea], the IC50 under setting [1] is under 2000 nM.

On to `COC(=O)c1ccc(NC(=O)Nc2cccc(O)c2)cc1` [Compound 745, methyl 4-({[(3-hydroxyphenyl)amino]carbonyl}amino)benzoate], for which the IC50 under setting [1] is under 2000 nM.

As to `CCOc1ccc(NC(=O)Nc2ccc(F)cc2)cc1` [Compound 358, 1-(4-ethoxyphenyl)-3-(4-fluorophenyl)urea], the IC50 under setting [1] was under 2000 nM.

As to `O=C(Nc1cccc(F)c1)Nc1cccc(OC(F)F)c1` [Compound 219, N-[3-(difluoromethoxy)phenyl]-N′-(3-fluorophenyl)urea], the IC50 under setting [2] was under 2000 nM.

Regarding `CCOC(=O)c1ccc(NC(=O)Nc2ccc(CO)cc2)cc1` [Compound 749, ethyl 4-[({[4-(hydroxymethyl)phenyl]amino}carbonyl)amino] benzoate], the IC50 under setting [1] was under 2000 nM.

With `CCOc1ccc(NC(=O)Nc2cccc(F)c2)cc1` [Compound 357, 1-(4-ethoxyphenyl)-3-(3-fluorophenyl)urea], the IC50 under setting [1] was under 2000 nM.

With `Cc1cccc(NC(=O)Nc2ccc(-n3cnc(Cl)c3Cl)cc2)c1` [Compound 319, 1-[4-(4,5-dichloro-1H-imidazol-1-yl)phenyl]-3-(3-methylphenyl)urea], the IC50 under setting [1] is under 2000 nM.

In the case of `Cc1ccc(NC(=O)Nc2ccc(Cl)cc2)cc1Cl` [Compound 445, 1-(3-chloro-4-methylphenyl)-3-(4-chlorophenyl)urea], the IC50 under setting [1] is under 2000 nM.

In the case of `Cc1cccc(NC(=O)Nc2ccc(CC#N)cc2)c1` [Compound 459, 1-[4-(cyanomethyl)phenyl]-3-(3-methylphenyl)urea], the IC50 under setting [1] is under 2000 nM.

In the case of `CCOc1ccc(NC(=O)Nc2ccc(CC)cc2)cc1` [Compound 235, N-(4-ethoxyphenyl)-N′-(4-ethylphenyl)urea], under setting [2], the concentration for half-maximal inhibition (IC50) was under 2000 nM.

As for `Cc1ccc(NC(=O)Nc2ccc([N+](=O)[O-])cc2)cc1` [Compound 463, 1-(4-methylphenyl)-3-(4-nitrophenyl)urea], the IC50 under setting [1] was under 2000 nM.

As for `CCc1ccc(NC(=O)Nc2cccc(OC(F)F)c2)cc1` [Compound 254, N-[3-(difluoromethoxy)phenyl]-N′-(4-ethylphenyl)urea], the IC50 under setting [2] is under 2000 nM.

For the molecule `CC(C)c1ccc(NC(=O)Nc2cccc(OC(F)F)c2)cc1` [Compound 577, 1-[3-(difluoromethoxy)phenyl]-3-(4-isopropylphenyl)urea], under setting [1], the IC50 was under 2000 nM.

In the case of `N#Cc1cncc(-c2cccc(NC(=O)Nc3ccc(OC(F)F)cc3)c2)c1` [Compound 73, N-[3-(5-cyanopyridin-3-yl)phenyl]-N′-[4-(difluoromethoxy)phenyl]urea], under setting [2], the IC50 was under 2000 nM.

Regarding `COC(=O)c1ccc(NC(=O)Nc2ccc(C(=O)OC(C)C)cc2)cc1` [Compound 724, isopropyl methyl 4,4′-(carbonyldiimino)dibenzoate], the IC50 under setting [1] is under 2000 nM.

For the molecule `N#CCOc1ccc(NC(=O)Nc2cc(F)cc(F)c2)cc1` [Compound 743, 1-[4-(cyanomethoxy)phenyl]-3-(3,5-difluorophenyl)urea], the IC50 under setting [1] was under 2000 nM.

`COC(=O)c1ccc(NC(=O)Nc2cccc(OCCO)c2)cc1` [Compound 755, methyl 4-[({[3-(2-hydroxyethoxy)phenyl]amino}carbonyl)amino] benzoate]: the IC50 under setting [1] is under 2000 nM.

`CCCc1ccc(NC(=O)Nc2cccc(C)c2)cc1` [Compound 292, 1-(3-methylphenyl)-3-(4-propylphenyl)urea]: under setting [1], the IC50 was under 2000 nM.

Regarding `O=C(Nc1ccc(OC(F)F)cc1)Nc1ccc(S(=O)(=O)N2CCCC2)cc1` [Compound 111, N-[4-(difluoromethoxy)phenyl]-N′-[4-(pyrrolidin-1-ylsulfonyl)phenyl]urea], the IC50 under setting [2] was under 2000 nM.

`COCc1ccc(NC(=O)Nc2cccc(C(C)=O)c2)cc1` [Compound 414, 1-(3-acetylphenyl)-3-[4-(methoxymethyl)phenyl]urea]: the IC50 under setting [1] is under 2000 nM.

With `Cc1ccc(NC(=O)Nc2cccc(C#N)c2)cc1Cl` [Compound 457, 1-(3-chloro-4-methylphenyl)-3-(3-cyanophenyl)urea], under setting [1], the IC50 is under 2000 nM.

In the case of `CCCOc1ccc(NC(=O)Nc2ccc(F)cc2)cc1` [Compound 362, 1-(4-fluorophenyl)-3-(4-propoxyphenyl)urea], the half-maximal inhibitory concentration (IC50) under setting [1] is under 2000 nM.

For the molecule `CCc1ccc(NC(=O)Nc2ccc(C#N)cn2)cc1` [Compound 636, 1-(5-cyanopyridin-2-yl)-3-(4-ethylphenyl)urea], under setting [1], the IC50 was under 2000 nM.

As to `Cc1ccc(NC(=O)Nc2cccc(OC(F)F)c2)c(C)c1` [Compound 711, 1-[3-(difluoromethoxy)phenyl]-3-(2,4-dimethylphenyl)urea], under setting [1], the IC50 was under 2000 nM.
